Results as given in US20110053897A1 (IRM LLC, priority 2009, published 2011).
Where two headings read alike, the source gives them in different places.

Target: T1, Syk kinase (Homo sapiens, UniProt P43405)
T1 construct: purchased
Assay: Syk kinase inhibition, Caliper LabChip off-chip mobility-shift kinase assay
Assay type: biochemical
Conditions: read-out: Syk Enzyme IC50
Summary of the method: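 Purified Syk pre-incubated 15 min with compound in 100 mM HEPES pH 7.5, 1 mM DTT, 10 mM MgCl2 or MnCl2, 0.002% Brij-35, then 1.5 μM fluorescein peptide and ATP at apparent KM added; 1–1.5 h at room temperature, 4% DMSO, EDTA stop. Microfluidic mobility-shift product/substrate conversion gave % inhibition; IC50 from 12-point series (10–0.00003 μM) by 4-parameter fit.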

| IC50 (Caliper LabChip assay) [nM] | IC50 [nM] | Structure (SMILES) |
| --- | --- | --- |
| 158 |  | C[C@@H](CO)Nc1nc(Nc2cnccn2)cc2ccn(CCN3CCOCC3)c(=O)c12 [compound 996] |
|  | 1610 | CCOCCOc1cccc(Nc2nc(Nc3cc(C)ccn3)cc3ccn(C)c(=O)c23)c1 [compound 335] |
|  | 18 | Cc1ccnc(Nc2cc3cc[nH]c(=O)c3c(NC(C)CO)n2)c1 (stereo not shown) [compound 265] |
|  | 384 | CCc1ccnc(Nc2cc3ccn(CC)c(=O)c3c(NC(C)C)n2)c1 [compound 304] |
|  | 897 | Cc1ccnc(Nc2cc3cc[nH]c(=O)c3c(N3CC[C@H](CO)C3)n2)c1 [compound 400] |
| 29 |  | Cc1ccnc(Nc2cc3ccn(C(C)C)c(=O)c3c(N[C@@H](C)CO)n2)c1 [compound 966] |
| 85 |  | CCn1ccc2cc(Nc3cc(C(C)(C)O)ccn3)nc(NC3(CO)CCC3)c2c1=O [compound 703] |
| 84 |  | CCn1ccc2cc(Nc3cc(C)ccn3)nc(N[C@@H]3CC[C@@H](O)C3)c2c1=O [compound 1040] |
|  | 13 | Cc1ccnc(Nc2cc3ccn(CCO)c(=O)c3c(N[C@@H](C)CO)n2)c1 [compound 367] |
|  | 11 | CCn1ccc2cc(Nc3cc(C)ccn3)nc(N[C@H]3CCC[C@H]3O)c2c1=O [compound 420] |
|  | 85 | Cc1ccnc(Nc2cc3ccn(CCO)c(=O)c3c(NC(C)C)n2)c1 [compound 313] |
|  | 384 | CCn1ccc2cc(Nc3cnc(C)cn3)nc(N[C@@H](C)CO)c2c1=O [compound 394] |
|  | 38 | Cc1ccnc(Nc2cc3cc[nH]c(=O)c3c(NC[C@H](C)O)n2)c1 [compound 501] |
| 1050 |  | Cc1ccnc(Nc2cc3ccn(CCO)c(=O)c3c(N)n2)c1 [compound 813] |
|  | 302 | [2H]C([2H])([2H])n1ccc2cc(Nc3cc(Cl)ccn3)nc(NC3CC3)c2c1=O [compound 519] |
| 92 |  | CCn1ccc2cc(Nc3cc(C)ccn3)nc(NC3CCC(C)(O)CC3)c2c1=O (stereo not shown) [compound 951] |
| 117 |  | CC(C)(C)Nc1nc(Nc2cc(-c3cn[nH]c3)ccn2)cc2ccn(CCO)c(=O)c12 [compound 840] |
| 33 |  | CCn1ccc2cc(Nc3cc(C)ccn3)nc(N[C@H]3CC[C@@H](CO)C3)c2c1=O [compound 792] |
| 18 |  | CC(C)(C)Nc1nc(Nc2cnccn2)cc2ccn(Cc3c[nH]nn3)c(=O)c12 [compound 881] |
|  | 967 | Cc1ccnc(Nc2cc3cc[nH]c(=O)c3c(N3CC[C@@H](O)C3)n2)c1 [compound 401] |
|  | 810 | Cn1ccc2cc(Nc3cc(Cl)ccn3)nc(NC3CCC3)c2c1=O [compound 544] |
|  | 115 | Cc1ccnc(Nc2cc3cc[nH]c(=O)c3c(NCC(O)c3cccc(Cl)c3)n2)c1 (stereo not shown) [compound 496] |
| 324 |  | CCn1ccc2cc(Nc3cnccn3)nc(NC3(CO)CCCC3)c2c1=O [compound 788] |
| 49 |  | CC(C)(C)Nc1nc(Nc2cnccn2)cc2ccn(CCF)c(=O)c12 [compound 1001] |
| 51 |  | CCn1ccc2cc(Nc3cnccn3)nc(N[C@@H]3CC[C@H](CO)C3)c2c1=O [compound 795] |
| 236 |  | [2H]C([2H])([2H])n1ccc2cc(Nc3cc(Cl)ccn3)nc(NC[C@@H]3CCCO3)c2c1=O [compound 1052] |

Continued, molecule first:

| Structure (SMILES) | IC50 (Caliper LabChip assay) [nM] | IC50 [nM] |
| --- | --- | --- |
| CC(C)(C)Nc1nc(Nc2cnccn2)cc2cc[nH]c(=O)c12 [compound 679] | 12 |  |
| COCCN1CCC(c2cc3cc[nH]c(=O)c3c(Nc3ccc(N4CCOCC4)cc3)n2)CC1 [compound 9] |  | 299 |
| CC1(Cn2ccc3cc(-c4cnc(N)nc4)nc(NC4COC4)c3c2=O)COC1 [compound 773, 6-(2-Aminopyrimidin-5-yl)-2-((3-methyloxetan-3-yl)methyl)-8-(oxetan-3-ylamino)-2,7-naphthyridin-1(2H)-one] | 67 |  |
| O=c1c2c(N[C@H]3CC[C@@H](O)CC3)nc(Nc3cnccn3)cc2ccn1CC(O)C(F)(F)F (stereo partly shown) [compound 1012] | 56 |  |
| C[C@@H]1CN(c2ccc(Nc3nc(-c4cncnc4)cc4cc[nH]c(=O)c34)cn2)C[C@H](C)O1 [compound 18] |  | 245 |
| COCCNC(=O)c1ccc(Nc2nc(-c3cnc(C)nc3)cc3cc[nH]c(=O)c23)cc1 [compound 74] |  | 29 |
| CCn1ccc2cc(Nc3cnccn3)nc(NC3CCC(C)(O)CC3)c2c1=O (stereo not shown) [compound 952] | 51 |  |
| Cn1ccc2cc(Nc3nccc(O)n3)nc(Nc3ccc(C(N)=O)cc3)c2c1=O [compound 804] | 194 |  |
| COc1cncc(-c2cc3cc[nH]c(=O)c3c(Nc3ccc(C4CCN(C(=O)N(C)C)CC4)c(C)c3)n2)n1 [compound 177] |  | 496 |
| COc1cncc(-c2cc3cc[nH]c(=O)c3c(Nc3ccc(C4CCN(C(=O)C(C)(C)N)CC4)c(C)c3)n2)n1 [compound 52] |  | 30 |
| COc1cncc(-c2cc3cc[nH]c(=O)c3c(Nc3ccc(CCN4CCC(OC)CC4)cc3)n2)n1 [compound 23] |  | 39 |
| Cn1ccc2cc(Nc3cnccn3)nc(N[C@H]3CCC[C@H]3O)c2c1=O (racemic) [compound 328] |  | 39 |
| CC(C)(C)Nc1nc(Nc2cc(-c3c[nH]nc3C(F)(F)F)ncn2)cc2ccn(CCO)c(=O)c12 [compound 635, 8-(tert-butylamino)-2-(2-hydroxyethyl)-6-(6-(3-(trifluoromethyl)-1H-pyrazol-4-yl)pyrimidin-4-ylamino)-2,7-naphthyridin-1(2H)-one] | 314 |  |
| CC(C)(C)Nc1nc(-c2cnc(N)nc2)cc2ccn(CC3(CO)COC3)c(=O)c12 [compound 923] | 10 |  |
| Cc1cc(Nc2nc(Nc3cc(C(=O)O)ccn3)cc3cc[nH]c(=O)c23)ccc1C1CCN(C2CC2)CC1 [compound 261] |  | 249 |
| CCn1ccc2cc(Nc3nccc(O)n3)nc(N[C@H]3CC[C@@H](O)C3)c2c1=O [compound 961] | 23 |  |
| CC1(Cn2ccc3cc(-c4cnc(N)nc4)nc(NC4CCC4)c3c2=O)COC1 [compound 771] | 75 |  |
| CCn1ccc2cc(Nc3nccc(O)n3)nc(N[C@@H]3CC[C@@H](O)C3)c2c1=O [compound 960] | 61 |  |
| CC1(Nc2nc(Nc3cnccn3)cc3cc[nH]c(=O)c23)CC1 [compound 839] | 8 |  |
| [2H]C([2H])([2H])n1ccc2cc(Nc3cnccn3)nc(N[C@H]3CC[C@@H](CO)C3)c2c1=O [compound 986] | 9 |  |
| COc1cncc(-c2cc3cc[nH]c(=O)c3c(Nc3ccc(C4CCN(CCO)CC4)c(C)c3)n2)n1 [compound 143] |  | 5 |
| Nc1ncc(-c2cc3cc[nH]c(=O)c3c(NCC(F)(F)F)n2)cn1 [compound 450] |  | 117 |
| N#CCn1ccc2cc(Nc3cnccn3)nc(NC3CCCC3)c2c1=O [compound 753] | 27 |  |
| COCCCN1CCC(c2ccc(Nc3nc(-c4cncnc4)cc4cc[nH]c(=O)c34)cc2F)CC1 [compound 197] |  | 35 |
| CCN1CCN(CCc2ccc(Nc3nc(Nc4ccc(C(=O)O)cn4)cc4cc[nH]c(=O)c34)cc2)CC1 [compound 581] |  | 16 |
| CC1(Nc2nc(-c3cnc(N)nc3)cc3ccn(CC4(CO)COC4)c(=O)c23)CCC1 [compound 933] | 25 |  |
| COc1ncc(-c2cc(Nc3cc4ccn(CCO)c(=O)c4c(NC(C)(C)C)n3)ncn2)cn1 [compound 637] | 60 |  |
| CCN1CCN(c2n[nH]c3cc(Nc4nc(-c5ccc(C)nc5)cc5cc[nH]c(=O)c45)ccc23)CC1 [compound 200] |  | 56 |
| COC(=O)CCN1CCC(c2ccc(Nc3nc(-c4cncc(OC)n4)cc4cc[nH]c(=O)c34)cc2C)CC1 [compound 160] |  | 81 |
